Test results: ChEMBL document CHEMBL1158410, “Synthesis and evaluation of 1-(quinoliloxypropyl)-4-aryl piperazines for atypical antipsychotic effect” (Bioorg Med Chem Lett, 2009)
Each block holds one compound with its values, some of them ahead of it. Active and inactive are the calls of the source. No cut-off for these calls is given here.

How the values were obtained:
[1] = Lipophilicity, log P of the compound; assay type: physicochemical; details: octanol/water
[2] = system: Mus musculus; assay: Antipsychotic activity in albino lyka mouse assessed as reduction in apomorphine-induced mesh climbing response at 1 mg/kg, ip administered 10 mins prior to apomorphine challenge measured after 10 to 30 mins; assay type: functional, organism-based; set-up: dose 1 mg/kg
[3] = system: Mus musculus; assay: Antipsychotic activity in albino lyka mouse assessed as reversal of apomorphine-induced stereotype response at 1 mg/kg, ip administered 10 mins prior to apomorphine challenge measured after 10 to 30 mins; assay type: functional, organism-based; set-up: dose 1 mg/kg
[4] = system: Mus musculus; assay: Antipsychotic activity in albino lyka mouse assessed as reduction in apomorphine-induced mesh climbing response at 25 mg/kg, ip administered 10 mins prior to apomorphine challenge measured after 10 to 30 mins; assay type: functional, organism-based; set-up: dose 25 mg/kg
[5] = system: Mus musculus; assay: Antipsychotic activity in albino lyka mouse assessed as reversal of apomorphine-induced stereotype response at 25 mg/kg, ip administered 10 mins prior to apomorphine challenge measured after 10 to 30 mins; assay type: functional, organism-based; set-up: dose 25 mg/kg
[6] = system: Mus musculus; assay: Antipsychotic activity in albino lyka mouse assessed as reduction in apomorphine-induced mesh climbing response at 120 mg/kg, ip administered 10 mins prior to apomorphine challenge measured after 10 to 30 mins; assay type: functional, organism-based; set-up: dose 120 mg/kg
[7] = system: Mus musculus; assay: Antipsychotic activity in albino lyka mouse assessed as reversal of apomorphine-induced stereotype response at 120 mg/kg, ip administered 10 mins prior to apomorphine challenge measured after 10 to 30 mins; assay type: functional, organism-based; set-up: dose 120 mg/kg
[8] = system: Mus musculus; assay: Antipsychotic activity in albino lyka mouse assessed as reversal of apomorphine-induced stereotype response at 5 mg/kg, ip administered 10 mins prior to apomorphine challenge measured after 10 to 30 mins; assay type: functional, organism-based; set-up: dose 5 mg/kg
[9] = system: Mus musculus; assay: Antipsychotic activity in albino lyka mouse assessed as reduction in apomorphine-induced mesh climbing response at 5 mg/kg, ip administered 10 mins prior to apomorphine challenge measured after 10 to 30 mins; assay type: functional, organism-based; set-up: dose 5 mg/kg
[10] = system: Mus musculus; assay: Antipsychotic activity in albino lyka mouse assessed as reduction in apomorphine-induced mesh climbing response at 80 mg/kg, ip administered 10 mins prior to apomorphine challenge measured after 10 to 30 mins; assay type: functional, organism-based; set-up: dose 80 mg/kg
[11] = system: Mus musculus; assay: Antipsychotic activity in albino lyka mouse assessed as reversal of apomorphine-induced stereotype response at 80 mg/kg, ip administered 10 mins prior to apomorphine challenge measured after 10 to 30 mins; assay type: functional, organism-based; set-up: dose 80 mg/kg
[12] = system: Mus musculus; assay: Antipsychotic activity in albino lyka mouse assessed as reversal of apomorphine-induced stereotype response at 20 mg/kg, ip administered 10 mins prior to apomorphine challenge measured after 10 to 30 mins; assay type: functional, organism-based; set-up: dose 20 mg/kg
[13] = system: Mus musculus; assay: Antipsychotic activity in albino lyka mouse assessed as reduction in apomorphine-induced mesh climbing response at 20 mg/kg, ip administered 10 mins prior to apomorphine challenge measured after 10 to 30 mins; assay type: functional, organism-based; set-up: dose 20 mg/kg

SMILES: CN1CCN(C2=Nc3cc(Cl)ccc3Nc3ccccc32)CC1 [CLOZAPINE]
- logP [1]: 3.71

- logP [1]: 3.58
SMILES: O=C(c1ccc(Cl)cc1)N1CCN(CCCOc2ccc3ncccc3c2)CC1
- Activity [2]: inactive
- Activity [3]: Active

- logP [1]: 3.02
SMILES: O=C(c1ccccc1)N1CCN(CCCOc2ccc3ncccc3c2)CC1
- Activity [4]: inactive
- Activity [5]: Active

- logP [1]: 3.58
SMILES: c1ccc(CN2CCN(CCCOc3cccc4cccnc34)CC2)cc1
- Activity [6]: Active
- Activity [7]: inactive

- logP [1]: 4.67
SMILES: O=C1Cc2cc(CCN3CCN(c4nsc5ccccc45)CC3)c(Cl)cc2N1 [ZIPRASIDONE]

- logP [1]: 3.58
SMILES: c1ccc(CN2CCN(CCCOc3ccc4ncccc4c3)CC2)cc1
- Activity [4]: inactive
- Activity [5]: inactive

- logP [1]: 3.58
SMILES: O=C(c1ccc(Cl)cc1)N1CCN(CCCOc2cccc3cccnc23)CC1
- Activity [8]: Active
- Activity [9]: inactive

- logP [1]: 4.14
SMILES: Clc1ccc(CN2CCN(CCCOc3cccc4cccnc34)CC2)cc1
- Activity [10]: Active
- Activity [11]: inactive

SMILES: Cc1nc2n(c(=O)c1CCN1CCC(c3noc4cc(F)ccc34)CC1)CCCC2 [RISPERIDONE]
- logP [1]: 2.1

- logP [1]: 4.14
SMILES: Clc1ccc(CN2CCN(CCCOc3ccc4ncccc4c3)CC2)cc1
- Activity [8]: inactive
- Activity [9]: inactive

- logP [1]: 2.37
SMILES: O=C(c1ccc(F)cc1)C1CCN(CCn2c(=O)[nH]c3ccccc3c2=O)CC1 [KETANSERIN]

- logP [1]: 3.02
SMILES: O=C(c1ccccc1)N1CCN(CCCOc2cccc3cccnc23)CC1
- Activity [12]: Active
- Activity [13]: inactive
